We go through 28 compounds from patent US20080039629A1, “Benzothniazole compositions and their use as ubiquition ligation inhibitors” (RIGEL PHARMACEUTICALS, INC., priority 2003, published 2008).

The target in the assay is T1, E1 and His-E2 Ubch10 (Homo sapiens, UniProt P22314).
T1 construct: host or cells: E. coli (His-Ubch10); Sf9 insect cells (E1)
T1 sequence (P22314 1-1058): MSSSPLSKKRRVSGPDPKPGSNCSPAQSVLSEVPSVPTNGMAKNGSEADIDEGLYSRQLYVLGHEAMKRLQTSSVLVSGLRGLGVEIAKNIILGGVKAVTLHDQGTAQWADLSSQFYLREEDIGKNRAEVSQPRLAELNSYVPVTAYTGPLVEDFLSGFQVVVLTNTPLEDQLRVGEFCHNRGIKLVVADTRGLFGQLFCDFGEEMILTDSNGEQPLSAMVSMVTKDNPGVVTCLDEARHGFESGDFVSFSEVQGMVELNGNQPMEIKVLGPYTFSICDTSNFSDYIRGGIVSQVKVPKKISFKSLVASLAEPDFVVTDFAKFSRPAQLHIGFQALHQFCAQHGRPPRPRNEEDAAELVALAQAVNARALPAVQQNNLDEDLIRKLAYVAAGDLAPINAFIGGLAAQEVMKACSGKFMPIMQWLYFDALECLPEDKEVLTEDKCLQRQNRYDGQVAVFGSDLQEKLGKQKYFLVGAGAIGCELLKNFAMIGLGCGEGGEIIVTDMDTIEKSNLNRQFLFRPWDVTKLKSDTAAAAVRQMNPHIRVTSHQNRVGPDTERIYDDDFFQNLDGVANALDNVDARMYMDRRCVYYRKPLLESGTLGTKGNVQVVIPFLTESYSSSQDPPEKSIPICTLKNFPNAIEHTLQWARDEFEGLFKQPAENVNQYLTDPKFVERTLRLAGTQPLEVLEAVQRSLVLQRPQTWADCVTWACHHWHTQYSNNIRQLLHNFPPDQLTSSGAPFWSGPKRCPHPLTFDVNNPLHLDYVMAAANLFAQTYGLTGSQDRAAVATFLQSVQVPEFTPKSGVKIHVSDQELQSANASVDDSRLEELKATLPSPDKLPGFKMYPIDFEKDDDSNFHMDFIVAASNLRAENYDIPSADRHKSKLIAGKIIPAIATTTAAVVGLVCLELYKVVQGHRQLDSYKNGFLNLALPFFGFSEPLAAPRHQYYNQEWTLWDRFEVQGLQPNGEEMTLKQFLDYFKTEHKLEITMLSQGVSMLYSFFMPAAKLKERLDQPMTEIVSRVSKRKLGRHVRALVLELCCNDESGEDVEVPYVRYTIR
Description: E1 to E2 transfer assay, His-E2 Ubch10, 1.0 μM ATP (low ATP). It counts as biochemical. The settings on record: Table 5, ATP inhibition properties; inhibition measured using IC50 values. The text has this: Biological assays for determining the transfer of ubiquitin from the E1 activating agent to the E2 conjugating agent are described in U.S. patent application Ser. Nos. 09/542,497 and 09/826,312 as well as in the PCT Application WO 01/75145, all of which are incorporated by reference in their entirety. The following assay example illustrates one way by which the ubiquitin ligase inhibitory activity of the compounds of the invention can be assayed. This assay example is not meant to limit in any way the use of the compounds of the invention as ubiquitin ligase inhibitors.
The attachment of a ubiquitin moiety to the E2 conjugating agent was assayed using Flag-ubiquitin that was purified from E. coli, E2 Ubch10 that was purified as a His-Ubch10 from E. coli, and E1 that was purified from Sf9 insect cells (Affiniti Research Products, Exeter, U.K.). The wells of a Nickel-substrate 96-well plate (Pierce Chemical) were blocked with 100 μl of 1% casein/phosphate buffered saline (PBS) for 1 hour at room temperature. The blocked Nickel-substrate plate was then washed three times with 200 μl of PBST (0.1% Tween-20 in PBS). Subsequently, Flag-ubiquitin reaction solution was added to each well so that the final concentration was 62.5 mM Tris pH 7.5, […], 0.75 mM DTT, 1.0 μM ATP (low ATP), and 100 ng Flag-ubiquitin. The final reaction solution volume was fixed to 80 μl with Millipore-filtered water. To this was added the following: a ubiquitin agent inhibitor in 10 μl of DMSO, 10 μl of E1 and His-E2 Ubch10 in 20 mM Tris buffer, pH 7.5, and 5% glycerol so that there was 10 ng/well of E1 and 20 ng/well of His-E2 Ubch10. The reaction was then allowed to proceed at room temperature for 1 hour.
After 1 hour, the wells were washed three times with 200 μl of PBST and the amount of E2-ubiquitin complex was measured. For measuring the amount of the E2-ubiquitin complex, 100 μl of Mouse anti-flag diluted 1:10,000 (Sigma Aldrich Fluka Chemicals, St. Louis, Mo.) and anti-mouse HRP diluted 1:15,000 (Jackson Immunoresearch labs, West Grove, Pa.) in PBST were added to each well and allowed to incubate at room temperature for another hour. The wells were then washed three times with 200 μl of PBST and 100 μl of luminol substrate (⅕ dilution) was added. The luminescence of each well was then measured using a […] to calculate the amount of E2-ubiquitin complex. This procedure was repeated using His-E2 Ubch5C instead of His-E2 Ubch10.
The table below illustrates the inhibitory properties of the pharmaceutical compostions of the invention comprising the compounds listed in the table using the assays described above. Inhibition was measured using IC50 values.

Take `COc1ccc2nc(NC(=O)Cc3ccccc3)sc2c1` [Compound 43, N-(6-methoxybenzo[d]thiazol-2-yl)-2-phenylacetamide]: the UBC10 entry was “−− (−− indicates marginal or no inhibition detected with this assay)”.
With `COc1ccc2nc(NC(=O)C3CCNCC3)sc2c1` [Compound 44, N-(6-methoxybenzo[d]thiazol-2-yl)piperidine-4-carboxamide] the entry was “−− (−− indicates marginal or no inhibition detected with this assay)”; with `CCCC1CCC(C(=O)Nc2nc3ccc(OC)cc3s2)CC1` (stereo not shown) [Compound 45, N-(6-methoxybenzo[d]thiazol-2-yl)-4-propylcyclohexanecarboxamide], “++ (++ indicates inhibition at 50 μM or or less)”; with `COc1ccc2nc(NC(=O)C3CCC3)sc2c1` [Compound 46, N-(6-methoxybenzo[d]thiazol-2-yl)cyclobutanecarboxamide], “++ (++ indicates inhibition at 50 μM or or less)”.
As to `COc1ccc2nc(NC(=O)C(C)C)sc2c1` [Compound 47, N-(6-methoxybenzo[d]thiazol-2-yl)isobutyramide], the UBC10 entry was “−− (−− indicates marginal or no inhibition detected with this assay)”.
Next, `COc1ccc2nc(NC(=O)C(C)(C)C)sc2c1` [Compound 48, N-(6-methoxybenzo[d]thiazol-2-yl)pivalamide]: “++ (++ indicates inhibition at 50 μM or or less)”; `COc1ccc2nc(NC(=O)c3cccs3)sc2c1` [Compound 49, N-(6-methoxybenzo[d]thiazol-2-yl)thiophene-2-carboxamide]: “++ (++ indicates inhibition at 50 μM or or less)”.
Next, `COc1ccc2nc(NC(=O)c3ccc([N+](=O)[O-])s3)sc2c1` [Compound 50, N-(6-methoxybenzo[d]thiazol-2-yl)-5-nitrothiophene-2-carboxamide]: “−− (−− indicates marginal or no inhibition detected with this assay)”.
With `COc1ccc2nc(N3C(=O)c4ccccc4C3=O)sc2c1` [Compound 51, 2-(6-methoxybenzo[d]thiazol-2-yl)isoindoline-1,3-dione] the entry was “++ (++ indicates inhibition at 50 μM or or less)”.
Regarding `COc1ccc2nc(NC(=O)c3ccncc3)sc2c1` [Compound 52, N-(6-methoxybenzo[d]thiazol-2-yl)isonicotinamide], the UBC10 entry is on record as “−− (−− indicates marginal or no inhibition detected with this assay)”.
Regarding `COc1ccc2nc(NC(=O)c3cccnc3)sc2c1` [Compound 53, N-(6-methoxybenzo[d]thiazol-2-yl)nicotinamide], the UBC10 result is “++ (++ indicates inhibition at 50 μM or or less)”.
Next, `COc1ccc2nc(NC(=O)c3cccc([N+](=O)[O-])c3)sc2c1` [Compound 54, N-(6-methoxybenzo[d]thiazol-2-yl)-3-nitrobenzamide]: “−− (−− indicates marginal or no inhibition detected with this assay)”; `COc1ccc2nc(NC(=O)c3cccc4ccccc34)sc2c1` [Compound 55, N-(6-methoxybenzo[d]thiazol-2-yl)-1-naphthamide]: “−− (−− indicates marginal or no inhibition detected with this assay)”.
Take `COc1ccc2nc(NC(=O)c3cccc(C)c3)sc2c1` [Compound 56, N-(6-methoxybenzo[d]thiazol-2-yl)-3-methylbenzamide]: the UBC10 result is “++ (++ indicates inhibition at 50 μM or or less)”.
With `COc1ccc2nc(NC(=O)c3ccc(F)cc3)sc2c1` [Compound 57, 4-fluoro-N-(6-methoxybenzo[d]thiazol-2-yl)benzamide] the entry was “++ (++ indicates inhibition at 50 μM or or less)”.
With `COc1ccc2nc(NC(=O)c3cccc(F)c3)sc2c1` [Compound 58, 3-fluoro-N-(6-methoxybenzo[d]thiazol-2-yl)benzamide] the entry was “++ (++ indicates inhibition at 50 μM or or less)”.
Next, `COc1ccc2nc(NC(=O)c3ccccc3F)sc2c1` [Compound 59, 2-fluoro-N-(6-methoxybenzo[d]thiazol-2-yl)benzamide]: “++ (++ indicates inhibition at 50 μM or or less)”.
Turning to `COc1cccc(C(=O)Nc2nc3ccc(OC)cc3s2)c1` [Compound 60, 3-methoxy-N-(6-methoxybenzo[d]thiazol-2-yl)benzamide], the UBC10 result is given as “++ (++ indicates inhibition at 50 μM or or less)”.
As to `COc1ccc2nc(NC(=O)c3ccccc3OC)sc2c1` [Compound 61, 2-methoxy-N-(6-methoxybenzo[d]thiazol-2-yl)benzamide], the UBC10 entry is listed as “−− (−− indicates marginal or no inhibition detected with this assay)”.
Next, `Cc1ccc(C(=O)Nc2nc3ccc(Cl)cc3s2)cc1` [Compound 70, N-(6-chlorobenzo[d]thiazol-2-yl)-4-methylbenzamide]: “−− (−− indicates marginal or no inhibition detected with this assay)”.
With `Cc1ccc(C(=O)Nc2nc3c(C)cccc3s2)cc1` [Compound 71, 4-methyl-N-(4-methylbenzo[d]thiazol-2-yl)benzamide] the entry was “−− (−− indicates marginal or no inhibition detected with this assay)”; with `CC(=O)Nc1ccc2nc(NC(=O)c3ccc(C)cc3)sc2c1` [Compound 72, N-(6-acetamidobenzo[d]thiazol-2-yl)-4-methylbenzamide], “−− (−− indicates marginal or no inhibition detected with this assay)”; with `Cc1ccc(C(=O)Nc2nc3ccc(S(N)(=O)=O)cc3s2)cc1` [Compound 73, N-[6-(aminosulfonyl)-1,3-benzothiazol-2-yl]-4-methylbenzamide], “−− (−− indicates marginal or no inhibition detected with this assay)”.
With `COC(=O)c1ccc(C(=O)Nc2nc3ccc(N)cc3s2)cc1` [Compound 74, methyl 4-((6-aminobenzo[d]thiazol-2-yl)carbamoyl)benzoate] the entry was “−− (−− indicates marginal or no inhibition detected with this assay)”; with `Cc1ccc(C(=O)Nc2nc3ccc(OC(F)(F)F)cc3s2)cc1` [Compound 75, 4-methyl-N-(6-(trifluoromethoxy)benzo[d]thiazol-2-yl)benzamide], “−− (−− indicates marginal or no inhibition detected with this assay)”.
As to `Cc1ccc(C(=O)Nc2nc3c(C)cccc3s2)cc1C` [Compound 76, 3,4-dimethyl-N-(4-methylbenzo[d]thiazol-2-yl)benzamide], the UBC10 entry was “−− (−− indicates marginal or no inhibition detected with this assay)”.
Next, `CCc1ccc(C(=O)Nc2nc3ccc(OC)cc3s2)cc1` [Compound 77, 4-ethyl-N-(6-methyoxybenzo[d]thiazol-2-yl)benzamide]: “++ (++ indicates inhibition at 50 μM or or less)”.
Next, `CCc1ccc(C(=O)Nc2nc3ccc(C)cc3s2)cc1` [Compound 78, 4-ethyl-N-(6-methylbenzo[d]thiazol-2-yl)benzamide]: “−− (−− indicates marginal or no inhibition detected with this assay)”.
